{"source": "ChEMBL document CHEMBL4725331", "about": "“An investigative study of antitumor properties of a novel thiazolo[4,5-d]pyrimidine small molecule revealing superior antitumor activity with CDK1 selectivity and potent pro-apoptotic properties” (Bioorg Med Chem, 2020)", "key": {"[1]": {"system": "DU-145", "experiment": "Antiproliferative activity against human DU-145 cells assessed as inhibition of cell growth at 10 uM measured after 48 hrs by SRB assay relative to control", "format": "functional"}, "[2]": {"system": "Hs-578T", "experiment": "Antiproliferative activity against human Hs-578T cells assessed as inhibition of cell growth measured after 48 hrs by SRB assay", "format": "functional"}, "[3]": {"system": "WI-38", "experiment": "Induction of apoptosis in human WI-38 cells assessed as early apoptotic cells at IC50 incubated for 48 hrs by annexin-V FITC and propidium iodide staining based flow cytometry analysis (reference value: 0.39 %)", "format": "cell-based", "conditions": "wi-38, 48 h"}, "[4]": {"system": "RPMI-8226", "experiment": "Antiproliferative activity against human RPMI-8226 cells assessed as inhibition of cell growth at 10 uM measured after 48 hrs by SRB assay relative to control", "format": "functional"}, "[5]": {"system": "SK-MEL-2", "experiment": "Antiproliferative activity against human SK-MEL-2 cells assessed as inhibition of cell growth measured after 48 hrs by SRB assay", "format": "functional"}, "[6]": {"system": "WI-38", "experiment": "Induction of apoptosis in human WI-38 cells assessed as necrotic cells at IC50 incubated for 48 hrs by annexin-V FITC and propidium iodide staining based flow cytometry analysis (reference value: 0.39 %)", "format": "cell-based", "conditions": "wi-38, 48 h"}, "[7]": {"system": "HL-60(TB)", "experiment": "Antiproliferative activity against human HL-60(TB) cells assessed as inhibition of cell growth measured after 48 hrs by SRB assay", "format": "functional"}, "[8]": {"system": "PC-3", "experiment": "Antiproliferative activity against human PC-3 cells assessed as inhibition of cell growth measured after 48 hrs by SRB assay", "format": "functional"}, "[9]": {"system": "NCI-H23", "experiment": "Antiproliferative activity against human NCI-H23 cells assessed as inhibition of cell growth at 10 uM measured after 48 hrs by SRB assay relative to control", "format": "functional"}, "[10]": {"system": "HCT-116", "experiment": "Cell cycle arrest in human HCT-116 cells assessed as accumulation in sub-G phase at IC50 concentration incubated for 48 hrs by propidium iodide staining based flow cytometry analysis (reference value: 2.4 %)", "format": "functional"}, "[11]": {"system": "NCI-H522", "experiment": "Antiproliferative activity against human NCI-H522 cells assessed as inhibition of cell growth measured after 48 hrs by SRB assay", "format": "functional"}, "[12]": {"system": "SK-OV-3", "experiment": "Antiproliferative activity against human SK-OV-3 cells assessed as inhibition of cell growth at 10 uM measured after 48 hrs by SRB assay relative to control", "format": "functional"}, "[13]": {"system": "HCT-116", "experiment": "Cell cycle arrest in human HCT-116 cells assessed as accumulation in G2/M phase phase at IC50 concentration incubated for 48 hrs by propidium iodide staining based flow cytometry analysis (reference value: 13.75 %)", "format": "functional"}, "[14]": {"system": "HOP-92", "experiment": "Antiproliferative activity against human HOP-92 cells assessed as inhibition of cell growth measured after 48 hrs by SRB assay", "format": "functional"}, "[15]": {"system": "OVCAR-5", "experiment": "Antiproliferative activity against human OVCAR-5 cells assessed as inhibition of cell growth measured after 48 hrs by SRB assay", "format": "functional"}, "[16]": {"system": "HCC 2998", "experiment": "Antiproliferative activity against human HCC 2998 cells assessed as inhibition of cell growth at 10 uM measured after 48 hrs by SRB assay relative to control", "format": "functional"}, "[17]": {"system": "EKVX", "experiment": "Antiproliferative activity against human EKVX cells assessed as inhibition of cell growth at 10 uM measured after 48 hrs by SRB assay relative to control", "format": "functional"}, "[18]": {"system": "NCI/ADR-RES", "experiment": "Antiproliferative activity against human NCI/ADR-RES cells assessed as inhibition of cell growth measured after 48 hrs by SRB assay", "format": "functional"}, "[19]": {"system": "SN12C", "experiment": "Antiproliferative activity against human SN12C cells assessed as inhibition of cell growth measured after 48 hrs by SRB assay", "format": "functional"}, "[20]": {"system": "WI-38", "experiment": "Cytotoxicity against human WI-38 cells assessed as reduction in cell viability after 48 hrs by MTT assay", "format": "cell-based", "conditions": "WI-38, 48 h"}, "[21]": {"system": "MCF7", "experiment": "Antiproliferative activity against human MCF7 cells assessed as inhibition of cell growth at 10 uM measured after 48 hrs by SRB assay relative to control", "format": "functional"}, "[22]": {"system": "HCT-116", "experiment": "Induction of apoptosis in human HCT116 cells assessed as increase in Bax gene expression by RT-PCR analysis relative to untreated control", "format": "functional"}, "[23]": {"system": "OVCAR-3", "experiment": "Antiproliferative activity against human OVCAR-3 cells assessed as inhibition of cell growth measured after 48 hrs by SRB assay", "format": "functional"}, "[24]": {"system": "RXF 393", "experiment": "Antiproliferative activity against human RXF 393 cells assessed as inhibition of cell growth measured after 48 hrs by SRB assay", "format": "functional"}, "[25]": {"system": "MOLT-4", "experiment": "Antiproliferative activity against human MOLT-4 cells assessed as inhibition of cell growth measured after 48 hrs by SRB assay", "format": "functional"}, "[26]": {"system": "SW-620", "experiment": "Antiproliferative activity against human SW-620 cells assessed as inhibition of cell growth at 10 uM measured after 48 hrs by SRB assay relative to control", "format": "functional"}, "[27]": {"system": "HCT-116", "experiment": "Cytotoxicity against human HCT-116 cells assessed as reduction in cell viability after 48 hrs by MTT assay", "format": "functional, cell-based", "conditions": "HCT-116, 48 h"}, "[28]": {"system": "SF-295", "experiment": "Antiproliferative activity against human SF-295 cells assessed as inhibition of cell growth measured after 48 hrs by SRB assay", "format": "functional"}, "[29]": {"system": "COLO 205", "experiment": "Antiproliferative activity against human COLO 205 cells assessed as inhibition of cell growth measured after 48 hrs by SRB assay", "format": "functional"}, "[30]": {"system": "BT-549", "experiment": "Antiproliferative activity against human BT-549 cells assessed as inhibition of cell growth measured after 48 hrs by SRB assay", "format": "functional"}, "[31]": {"system": "786-0", "experiment": "Antiproliferative activity against human 786-0 cells assessed as inhibition of cell growth measured after 48 hrs by SRB assay", "format": "functional"}, "[32]": {"target": "Cyclin-dependent kinase 1/cyclin B1 (Homo sapiens, UniProt P06493)", "sequence (P06493 whole entry)": "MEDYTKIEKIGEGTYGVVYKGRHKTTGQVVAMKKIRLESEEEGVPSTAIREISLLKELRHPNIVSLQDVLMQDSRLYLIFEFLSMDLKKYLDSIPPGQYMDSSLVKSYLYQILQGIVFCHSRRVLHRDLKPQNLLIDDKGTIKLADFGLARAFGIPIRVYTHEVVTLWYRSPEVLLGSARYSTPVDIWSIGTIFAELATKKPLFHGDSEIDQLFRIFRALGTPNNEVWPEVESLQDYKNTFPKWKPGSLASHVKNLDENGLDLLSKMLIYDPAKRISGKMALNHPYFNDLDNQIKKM", "sequence (P14635 whole entry, further chain)": "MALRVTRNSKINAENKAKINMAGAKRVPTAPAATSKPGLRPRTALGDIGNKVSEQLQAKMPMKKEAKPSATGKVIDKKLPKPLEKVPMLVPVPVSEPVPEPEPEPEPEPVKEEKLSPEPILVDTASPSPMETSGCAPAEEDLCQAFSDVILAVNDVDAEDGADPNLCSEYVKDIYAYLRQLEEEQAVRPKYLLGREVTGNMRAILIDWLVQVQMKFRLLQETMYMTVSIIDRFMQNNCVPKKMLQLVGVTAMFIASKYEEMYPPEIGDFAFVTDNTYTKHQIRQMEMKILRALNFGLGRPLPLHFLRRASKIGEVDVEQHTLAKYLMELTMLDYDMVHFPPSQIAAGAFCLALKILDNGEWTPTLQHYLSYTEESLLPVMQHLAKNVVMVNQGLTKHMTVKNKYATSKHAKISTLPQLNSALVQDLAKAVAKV", "experiment": "Inhibition of CDK1/cyclinB (unknown origin)", "format": "protein-complex assay"}, "[33]": {"system": "ACHN", "experiment": "Antiproliferative activity against human ACHN cells assessed as inhibition of cell growth measured after 48 hrs by SRB assay", "format": "functional"}, "[34]": {"conditions": "read-out: LC50 (the source's name)"}}}
{"smiles": "COc1ccc(-n2c(=S)sc3c(Cl)nc(C)nc32)c(OC)c1", "values": [{"measurement": "inhibition at 10 µM", "setting": "[1]", "value": "> 50", "unit": "%"}, {"measurement": "GI50", "setting": "[2]", "value": 2.63, "unit": "µM"}, {"measurement": "TGI", "setting": "[2]", "value": 7.76, "unit": "µM"}, {"measurement": "CC50", "setting": "[2]; [34]", "value": "> 100", "unit": "µM"}, {"measurement": "Activity", "setting": "[3]", "value": 3.59, "unit": "%"}, {"measurement": "inhibition at 10 µM", "setting": "[4]", "value": "> 50", "unit": "%"}, {"measurement": "GI50", "setting": "[5]", "value": 2.04, "unit": "µM"}, {"measurement": "TGI", "setting": "[5]", "value": 3.98, "unit": "µM"}, {"measurement": "CC50", "setting": "[5]; [34]", "value": 7.76, "unit": "µM"}, {"measurement": "Activity", "setting": "[6]", "value": 1.41, "unit": "%"}, {"measurement": "GI50", "setting": "[7]", "value": 1.41, "unit": "µM"}, {"measurement": "TGI", "setting": "[7]", "value": 5.89, "unit": "µM"}, {"measurement": "CC50", "setting": "[7]; [34]", "value": "> 100", "unit": "µM"}, {"measurement": "GI50", "setting": "[8]", "value": 2.4, "unit": "µM"}, {"measurement": "TGI", "setting": "[8]", "value": 5.89, "unit": "µM"}, {"measurement": "CC50", "setting": "[8]; [34]", "value": 22.9, "unit": "µM"}, {"measurement": "inhibition at 10 µM", "setting": "[9]", "value": "> 50", "unit": "%"}, {"measurement": "Activity", "setting": "[10]", "value": 17.67, "unit": "%"}, {"measurement": "GI50", "setting": "[11]", "value": 1.82, "unit": "µM"}, {"measurement": "TGI", "setting": "[11]", "value": 3.89, "unit": "µM"}, {"measurement": "CC50", "setting": "[11]; [34]", "value": 8.32, "unit": "µM"}, {"measurement": "inhibition at 10 µM", "setting": "[12]", "value": "> 50", "unit": "%"}, {"measurement": "Activity", "setting": "[13]", "value": 29.82, "unit": "%"}, {"measurement": "GI50", "setting": "[14]", "value": 2.04, "unit": "µM"}, {"measurement": "TGI", "setting": "[14]", "value": 8.51, "unit": "µM"}, {"measurement": "CC50", "setting": "[14]; [34]", "value": 31.6, "unit": "µM"}, {"measurement": "GI50", "setting": "[15]", "value": 6.17, "unit": "µM"}, {"measurement": "TGI", "setting": "[15]", "value": 20.9, "unit": "µM"}, {"measurement": "CC50", "setting": "[15]; [34]", "value": 53.7, "unit": "µM"}, {"measurement": "inhibition at 10 µM", "setting": "[16]", "value": "> 50", "unit": "%"}, {"measurement": "inhibition at 10 µM", "setting": "[17]", "value": "> 50", "unit": "%"}, {"measurement": "GI50", "setting": "[18]", "value": 13.2, "unit": "µM"}, {"measurement": "TGI", "setting": "[18]", "value": 72.4, "unit": "µM"}, {"measurement": "CC50", "setting": "[18]; [34]", "value": "> 100", "unit": "µM"}, {"measurement": "GI50", "setting": "[19]", "value": 2.82, "unit": "µM"}, {"measurement": "TGI", "setting": "[19]", "value": 9.12, "unit": "µM"}, {"measurement": "CC50", "setting": "[19]; [34]", "value": 36.3, "unit": "µM"}, {"measurement": "IC50", "setting": "[20]", "value": 21.7, "unit": "µM"}, {"measurement": "inhibition at 10 µM", "setting": "[21]", "value": "> 50", "unit": "%"}, {"measurement": "fold change (FC)", "setting": "[22]", "value": 9.9}, {"measurement": "GI50", "setting": "[23]", "value": 1.78, "unit": "µM"}, {"measurement": "TGI", "setting": "[23]", "value": 3.24, "unit": "µM"}, {"measurement": "CC50", "setting": "[23]; [34]", "value": 5.89, "unit": "µM"}, {"measurement": "GI50", "setting": "[24]", "value": 2, "unit": "µM"}, {"measurement": "TGI", "setting": "[24]", "value": 4.07, "unit": "µM"}, {"measurement": "CC50", "setting": "[24]; [34]", "value": 8.32, "unit": "µM"}, {"measurement": "GI50", "setting": "[25]", "value": 2.14, "unit": "µM"}, {"measurement": "TGI", "setting": "[25]", "value": 5.5, "unit": "µM"}, {"measurement": "CC50", "setting": "[25]; [34]", "value": "> 100", "unit": "µM"}, {"measurement": "inhibition at 10 µM", "setting": "[26]", "value": "> 50", "unit": "%"}, {"measurement": "IC50", "setting": "[27]", "value": 5.34, "unit": "µM"}, {"measurement": "GI50", "setting": "[28]", "value": 7.08, "unit": "µM"}, {"measurement": "TGI", "setting": "[28]", "value": 19.9, "unit": "µM"}, {"measurement": "CC50", "setting": "[28]; [34]", "value": 46.8, "unit": "µM"}, {"measurement": "GI50", "setting": "[29]", "value": 3.8, "unit": "µM"}, {"measurement": "TGI", "setting": "[29]", "value": 13.2, "unit": "µM"}, {"measurement": "CC50", "setting": "[29]; [34]", "value": 47.9, "unit": "µM"}, {"measurement": "GI50", "setting": "[30]", "value": 2, "unit": "µM"}, {"measurement": "TGI", "setting": "[30]", "value": 4.27, "unit": "µM"}, {"measurement": "CC50", "setting": "[30]; [34]", "value": 9.12, "unit": "µM"}, {"measurement": "GI50", "setting": "[31]", "value": 4.47, "unit": "µM"}, {"measurement": "TGI", "setting": "[31]", "value": 20.4, "unit": "µM"}, {"measurement": "CC50", "setting": "[31]; [34]", "value": 81.3, "unit": "µM"}, {"measurement": "IC50", "setting": "[32]", "value": 0.097, "unit": "µM"}, {"measurement": "GI50", "setting": "[33]", "value": 2.09, "unit": "µM"}, {"measurement": "TGI", "setting": "[33]", "value": 3.98, "unit": "µM"}, {"measurement": "CC50", "setting": "[33]; [34]", "value": 7.59, "unit": "µM"}]}
